{"source": "patent US20080305186A1", "about": "“Method and Composition for the Treatment of Cardiac Hypertrophy” (BOARD OF REGENTS, THE UNIVERSITY OF TEXAS SYSTEM, priority 2007, published 2008)", "test_system": "cardiac gene expression", "assay": "Microarray analysis of cardiac gene expression (GeneChip Mouse Genome 430 2.0)", "type": "in vivo, mice", "procedure": "Microarray Sample Preparation and Analysis. Animal hearts were rapidly removed, and the atria and right ventricles were cut and immediately plunged into TRIzol Reagent (Life Technologies). Total RNA was isolated following the manufacturer's instructions, purified by phenol-chloroform extraction and then ethanol precipitation, and 20 μg further processed for microarray analysis. Briefly, cDNA synthesis, in vitro transcription, and labeling and fragmentation to produce the oligonucleotide probes were performed as instructed by the GeneChip manufacturer (Affymetrix). The probes were first hybridized to a test array (Affymetrix) and then to the GeneChip Mouse Genome 430 2.0 Array, using the GeneChip Hybridization Oven 640. The chips were washed in a GeneChip Fluidics Station 450 (Affymetrix), and the results were visualized with a GeneChip G7 scanner (Affymetrix). RMA normalization, pairwise comparisons, Student's t test and Benjamini and Hochberg correction were subsequently performed using GeneSifter (VizX Labs, Seattle, Wash.) and Spotfire DecisionSite 8.3 (Spotfire, Inc., Somerville, Mass.).\nEffects on Gene Expression Profile. […] One mouse heart was used for each array, and was performed in triplicate, generating a total of 12 arrays. GeneSifter was used to perform RMA normalization, pairwise comparisons of averaged signal intensity values, and Student's t-test with Benjamini and Hochberg correction, and Spotfire was used to perform pairwise comparisons. […] Additionally, genes that were altered between any two N or cardiac hypertrophy samples were removed, as these alterations most likely represented normal variations between mice.", "data": [{"smiles": "C[C@H]1c2cccc(O)c2C(=O)C2=C(O)[C@]3(O)C(=O)C(C(N)=O)=C(O)[C@@H](N(C)C)[C@@H]3[C@@H](O)[C@@H]21", "note": "[doxycycline]", "values": [{"measurement": "FC EST", "setting": "GenBank BM245060, vs mice given only isoproterenol", "result": "−2.3"}, {"measurement": "FC Fos-like antigen 2 (Fosl2)", "setting": "GenBank BM245170, vs mice given only isoproterenol", "result": "−2.6"}, {"measurement": "FC ESTs", "setting": "GenBank BM246377, vs mice given only isoproterenol", "result": "−1.9"}, {"measurement": "FC Cytoglobin (Cygb)", "setting": "GenBank BM899392, vs mice given only isoproterenol", "result": 1.8}, {"measurement": "FC Flavin containing monooxygenase 2 (Fmo2)", "setting": "GenBank BM936480, vs mice given only isoproterenol", "result": "−2.7"}, {"measurement": "FC Tripartite motif protein 24 (Trim24)", "setting": "GenBank BM945528, heart, drug + isoproterenol vs isoproterenol-only mice, CH vs normal FC 1.6", "result": "−1.8", "unit": "fold"}, {"measurement": "FC Headcase homolog (Heca)", "setting": "GenBank BQ031006, vs mice given only isoproterenol", "result": "−2.2"}, {"measurement": "FC SERTA domain containing 4 (Sertad4)", "setting": "GenBank BQ174721, vs mice given only isoproterenol", "result": 2.0}, {"measurement": "FC EST", "setting": "GenBank BQ176399, vs mice given only isoproterenol", "result": "−1.6"}, {"measurement": "FC Sema domain, seven thrombospondin repeats (type 1 and type 1-like), transmembrane domain (TM) and short cytoplasmic domain, (semaphorin) 5A (Sema5a)", "setting": "GenBank BQ176610, vs mice given only isoproterenol", "result": "−3.9"}, {"measurement": "FC Transmembrane protein 38B (Tmem38b)", "setting": "GenBank C77858, heart, drug + isoproterenol vs isoproterenol-only mice, CH vs normal FC 2.1", "result": "−1.5", "unit": "fold"}, {"measurement": "FC Mitochondrial ribosomal protein L45 (Mrpl45)", "setting": "GenBank C79823, vs mice given only isoproterenol", "result": 2.4}, {"measurement": "FC Leukemia inhibitory factor receptor (Lifr)", "setting": "GenBank D17444, vs mice given only isoproterenol", "result": "−2.0"}, {"measurement": "FC Tripartite motif protein 25 (Trim25)", "setting": "GenBank D63902, heart, drug + isoproterenol vs isoproterenol-only mice, CH vs normal FC 1.7", "result": "−2.1", "unit": "fold"}, {"measurement": "FC L20048", "setting": "GenBank L20048, vs mice given only isoproterenol", "result": "−1.9"}, {"measurement": "FC Cytoplasmic beta-actin (Actb)", "setting": "GenBank M12481, vs mice given only isoproterenol", "result": 3.1}, {"measurement": "FC Multidrug resistae protein (MDR) (Acb1a)", "setting": "GenBank M30697, vs mice given only isoproterenol", "result": "−2.6"}, {"measurement": "FC Thymoma viral proto-oogene 2 (Akt2)", "setting": "GenBank NM_007434, heart, drug + isoproterenol vs isoproterenol-only mice, CH vs normal FC −1.8", "result": 1.7, "unit": "fold"}, {"measurement": "FC Early B-cell factor (Ebf1)", "setting": "GenBank NM_007897, vs mice given only isoproterenol", "result": 2.1}, {"measurement": "FC Epidermal growth factor receptor pathway substrate 8 (Eps8)", "setting": "GenBank NM_007945, vs mice given only isoproterenol", "result": "−1.8"}, {"measurement": "FC Tumor necrosis factor receptor superfamily, member 6 (Tnfrsf6) (Fas)", "setting": "GenBank NM_007987, heart, drug + isoproterenol vs isoproterenol-only mice, CH vs normal FC 2.8", "result": "−2.4", "unit": "fold"}, {"measurement": "FC Glutamate-cysteine ligase, modifier subunit (Gclm)", "setting": "GenBank NM_008129, vs mice given only isoproterenol", "result": "−1.8"}, {"measurement": "FC Jun-B oogene (Junb)", "setting": "GenBank NM_008416, vs mice given only isoproterenol", "result": "−2.0"}, {"measurement": "FC Potassium voltage-gated channel, shaker-related subfamily, member 5 (Kcna5)", "setting": "GenBank NM_008419, vs mice given only isoproterenol", "result": "−2.4"}, {"measurement": "FC NM_008808", "setting": "GenBank NM_008808, vs mice given only isoproterenol", "result": 1.7}, {"measurement": "FC Pphospholipid scramblase 2 (Plscr2)", "setting": "GenBank NM_008880, vs mice given only isoproterenol", "result": "−1.8"}, {"measurement": "FC S100 calcium binding protein A9 (calgranulin B) (S100a9)", "setting": "GenBank NM_009114, vs mice given only isoproterenol", "result": "−14.0"}, {"measurement": "FC Tubulin, alpha 3 (Tuba3)", "setting": "GenBank NM_009446, heart, drug + isoproterenol vs isoproterenol-only mice, CH vs normal FC −1.9", "result": 1.9, "unit": "fold"}, {"measurement": "FC Tubulin, alpha 4 (Tuba4)", "setting": "GenBank NM_009447 (first entry, r874), heart, drug + isoproterenol vs isoproterenol-only mice, CH vs normal FC −4.3", "result": 4.7, "unit": "fold"}, {"measurement": "FC Tubulin, alpha 4 (Tuba4)", "setting": "GenBank NM_009447 (second entry, r876), heart, drug + isoproterenol vs isoproterenol-only mice, CH vs normal FC −6.2", "result": 5.8, "unit": "fold"}, {"measurement": "FC Glucocorticoid-induced leucine zipper (Gilz) (Dsip1)", "setting": "GenBank NM_010286, vs mice given only isoproterenol", "result": "−2.5"}, {"measurement": "FC Lymphocyte antigen 6 complex, locus C (Ly6c)", "setting": "GenBank NM_010741, vs mice given only isoproterenol", "result": "−2.1"}, {"measurement": "FC Matrix metalloproteinase 3 (Mmp3)", "setting": "GenBank NM_010809, vs mice given only isoproterenol", "result": "−2.9"}, {"measurement": "FC Notch gene homolog 4, (Drosophila) (Notch4)", "setting": "GenBank NM_010929, vs mice given only isoproterenol", "result": "−2.2"}, {"measurement": "FC Proline dehydrogenase (Prodh)", "setting": "GenBank NM_011172, vs mice given only isoproterenol", "result": "−2.0"}, {"measurement": "FC Small inducible cytokine A9 (Scya9) (Ccl9) (Mip-1[…])", "setting": "GenBank NM_011338, vs mice given only isoproterenol", "result": "−2.1"}, {"measurement": "FC Interferon-related developmental regulator 1 (Ifrd1)", "setting": "GenBank NM_013562, vs mice given only isoproterenol", "result": "−1.6"}, {"measurement": "FC Methyl-CpG binding domain protein 1 (Mbd1)", "setting": "GenBank NM_013594, vs mice given only isoproterenol", "result": "−2.6"}, {"measurement": "FC Metallothionein 1 (Mt1)", "setting": "GenBank NM_013602, vs mice given only isoproterenol", "result": "−2.4"}, {"measurement": "FC S100 calcium binding protein A8 (calgranulin A) (S100a8)", "setting": "GenBank NM_013650, vs mice given only isoproterenol", "result": "−19.9"}, {"measurement": "FC Mitogen-activated protein kinase kinase kinase 6 (Map3k6)", "setting": "GenBank NM_016693, vs mice given only isoproterenol", "result": "−3.2"}, {"measurement": "FC Tubulin, alpha 8 (Tuba8)", "setting": "GenBank NM_017379, heart, drug + isoproterenol vs isoproterenol-only mice, CH vs normal FC −3.3", "result": 3.1, "unit": "fold"}, {"measurement": "FC Small inducible cytokine subfamily B (Cys-X-Cys), member 13 (Scyb13) (Cxcl13)", "setting": "GenBank NM_018866, vs mice given only isoproterenol", "result": "−4.4"}, {"measurement": "FC Ras-related associated with diabetes (Rrad)", "setting": "GenBank NM_019662, vs mice given only isoproterenol", "result": 2.4}, {"measurement": "FC Phosphodiesterase 4A, cAMP specific (Pde4a)", "setting": "GenBank NM_019798, vs mice given only isoproterenol", "result": 1.8}, {"measurement": "FC Toll-like receptor 4 (TLR4)", "setting": "GenBank NM_021297, heart, drug + isoproterenol vs isoproterenol-only mice, CH vs normal FC 3.2", "result": "−2.6", "unit": "fold"}, {"measurement": "FC Solute carrier family 43, member 3 (Slc43a3)", "setting": "GenBank NM_021398, vs mice given only isoproterenol", "result": "−2.0"}, {"measurement": "FC Titin immunoglobulin domain protein (Myotilin, Myot)", "setting": "GenBank NM_021484, heart, drug + isoproterenol vs isoproterenol-only mice, CH vs normal FC 4.8", "result": "−3.0", "unit": "fold"}, {"measurement": "FC Jutophilin 2 (Jph2)", "setting": "GenBank NM_021566, vs mice given only isoproterenol", "result": 2.1}, {"measurement": "FC Transformation related protein 53 inducible nuclear protein 1 (Trp53inp1)", "setting": "GenBank NM_021897, heart, drug + isoproterenol vs isoproterenol-only mice, CH vs normal FC 4.8", "result": "−3.5", "unit": "fold"}, {"measurement": "FC Homocysteine-inducible, endoplasmic reticulum stress-inducible, ubiquitin-like domain member 1 (Herpud1)", "setting": "GenBank NM_022331, vs mice given only isoproterenol", "result": "−3.0"}, {"measurement": "FC Retinol binding protein 7, cellular (Rbp7)", "setting": "GenBank NM_023462, vs mice given only isoproterenol", "result": "−1.6"}, {"measurement": "FC Thioredoxin interacting protein (Txnip)", "setting": "GenBank NM_023719, heart, drug + isoproterenol vs isoproterenol-only mice, CH vs normal FC 1.8", "result": "−3.5", "unit": "fold"}, {"measurement": "FC F-box only protein 32 (Fbxo32)", "setting": "GenBank NM_026346, vs mice given only isoproterenol", "result": "−4.7"}, {"measurement": "FC Membrane-spanning 4-domains, subfamily A, member 6d (Ms4a6d)", "setting": "GenBank NM_026835, vs mice given only isoproterenol", "result": "−2.2"}, {"measurement": "FC Membrane-spanning 4-domains, subfamily A, member 6B (Ms4a6b)", "setting": "GenBank NM_027209, vs mice given only isoproterenol", "result": "−1.7"}, {"measurement": "FC Leucine-rich alpha-2-glycoprotein (Lrg-pending)", "setting": "GenBank NM_029796, vs mice given only isoproterenol", "result": "−2.9"}, {"measurement": "FC Fibroblast growth factor 16 (Fgf16)", "setting": "GenBank NM_030614, vs mice given only isoproterenol", "result": 2.8}, {"measurement": "FC Transcription factor 23 (Tcf23)", "setting": "GenBank NM_053085, heart, drug + isoproterenol vs isoproterenol-only mice, CH vs normal FC 3.5", "result": "−2.3", "unit": "fold"}, {"measurement": "FC Secretoglobin, family 3A, member 1 (Scgb3a1)", "setting": "GenBank NM_054037, vs mice given only isoproterenol", "result": "−2.2"}]}]}
